Structures can show the parent of a compound that is named as a salt. Where two headings read alike, the source gives them in different places.
Tests used:
KIT = molecular target: T1, KIT (Homo sapiens, UniProt P10721); assay: Competition binding assay, KIT Kd
T1 construct: made in house
In short: (§1)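 Phage-fused or HEK-293/DNA-tagged kinase + ligand-coated streptavidin beads + compound, 1 h RT with shaking. Wash, elute with free ligand 30 min RT, qPCR of eluted kinase. Kd: 11-point 3-fold series.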

FLT3 = molecular target: T2, FLT3 (Homo sapiens, UniProt P36888); assay: Competition binding assay, FLT3 Kd
T2 construct: made in house
T2 sequence (P36888 27-993): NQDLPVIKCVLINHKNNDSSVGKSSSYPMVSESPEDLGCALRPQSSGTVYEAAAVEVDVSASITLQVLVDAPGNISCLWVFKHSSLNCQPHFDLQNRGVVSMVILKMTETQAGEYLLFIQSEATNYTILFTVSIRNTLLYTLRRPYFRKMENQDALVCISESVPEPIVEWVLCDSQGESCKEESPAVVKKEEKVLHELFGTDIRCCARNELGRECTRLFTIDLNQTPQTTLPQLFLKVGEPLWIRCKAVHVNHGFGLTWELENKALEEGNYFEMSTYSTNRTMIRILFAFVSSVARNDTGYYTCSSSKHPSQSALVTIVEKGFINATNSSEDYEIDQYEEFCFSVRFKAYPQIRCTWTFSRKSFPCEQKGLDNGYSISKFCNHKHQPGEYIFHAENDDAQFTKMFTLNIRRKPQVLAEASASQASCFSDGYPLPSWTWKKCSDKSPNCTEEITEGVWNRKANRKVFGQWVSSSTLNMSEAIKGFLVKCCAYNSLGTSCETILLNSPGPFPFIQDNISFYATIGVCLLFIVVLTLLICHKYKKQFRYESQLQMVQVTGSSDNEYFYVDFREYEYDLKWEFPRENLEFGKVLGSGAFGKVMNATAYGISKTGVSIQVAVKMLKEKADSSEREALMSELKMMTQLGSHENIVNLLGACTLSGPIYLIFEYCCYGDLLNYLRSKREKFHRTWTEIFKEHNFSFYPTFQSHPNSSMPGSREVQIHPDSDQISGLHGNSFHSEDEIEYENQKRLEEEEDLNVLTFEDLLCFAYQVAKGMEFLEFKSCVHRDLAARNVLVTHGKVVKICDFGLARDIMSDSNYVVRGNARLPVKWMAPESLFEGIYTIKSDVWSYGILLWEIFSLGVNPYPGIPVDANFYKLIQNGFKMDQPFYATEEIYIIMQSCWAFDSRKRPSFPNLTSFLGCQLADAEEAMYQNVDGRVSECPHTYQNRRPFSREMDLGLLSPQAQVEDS
In short: as §1

CSF1R = CSF1R (Homo sapiens, UniProt P07333); assay: Competition binding assay, CSF1R Kd; design: made in house
CSF1R, sequence (P07333 20-972): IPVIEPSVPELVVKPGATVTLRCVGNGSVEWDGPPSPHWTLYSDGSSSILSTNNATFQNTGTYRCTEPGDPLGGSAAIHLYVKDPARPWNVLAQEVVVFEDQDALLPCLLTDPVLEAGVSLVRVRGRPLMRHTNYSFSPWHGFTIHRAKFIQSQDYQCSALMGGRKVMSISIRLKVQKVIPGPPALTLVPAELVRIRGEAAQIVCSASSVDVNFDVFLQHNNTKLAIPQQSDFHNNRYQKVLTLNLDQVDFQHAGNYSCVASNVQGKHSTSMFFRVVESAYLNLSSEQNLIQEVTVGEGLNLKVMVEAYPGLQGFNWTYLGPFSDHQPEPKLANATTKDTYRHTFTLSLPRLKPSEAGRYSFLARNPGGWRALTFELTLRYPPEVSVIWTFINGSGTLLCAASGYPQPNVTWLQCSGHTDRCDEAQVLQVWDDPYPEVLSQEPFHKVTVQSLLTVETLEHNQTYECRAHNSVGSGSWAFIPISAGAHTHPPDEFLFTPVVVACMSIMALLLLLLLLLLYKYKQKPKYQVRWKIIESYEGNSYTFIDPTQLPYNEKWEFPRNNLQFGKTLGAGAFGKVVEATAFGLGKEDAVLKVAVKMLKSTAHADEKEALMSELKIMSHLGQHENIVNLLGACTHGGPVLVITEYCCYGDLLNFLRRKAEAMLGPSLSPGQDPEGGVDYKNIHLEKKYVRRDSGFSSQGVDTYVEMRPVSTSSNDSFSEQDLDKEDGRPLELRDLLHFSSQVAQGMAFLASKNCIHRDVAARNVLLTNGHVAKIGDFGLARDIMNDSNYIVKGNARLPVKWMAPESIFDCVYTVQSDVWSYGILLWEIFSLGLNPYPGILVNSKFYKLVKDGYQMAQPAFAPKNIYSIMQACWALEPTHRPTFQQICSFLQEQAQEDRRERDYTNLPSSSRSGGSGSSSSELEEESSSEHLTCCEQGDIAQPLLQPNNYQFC
In short: as §1

[1] = molecular target: kinase panel containing either 386 or 392 distinct kinases; assay: Kinase selectivity score S10 from competition binding panel
Description: Competition binding assays used herein were developed, validated and performed as described in Fabian et al., Nature Biotechnology 2005, 23, 329-336. Kinases were produced as fusions to T7 phage (See, Fabian et al. or WO04/015142) or alternatively, the kinases were expressed in HEK-293 cells and subsequently tagged with DNA for PCR detection (See, WO08/005310). For the binding assays, streptavidin-coated magnetic beads were treated with biotinylated affinity ligands for 30 min at room temperature to generate affinity resins. The liganded beads were blocked with excess biotin and washed with blocking buffer (SeaBlock (Pierce), 1% BSA, 0.05% Tween 20, 1 mM DTT) to remove unbound ligand and to reduce non-specific binding. Binding reactions were assembled by combining kinase, liganded affinity beads, and test compounds in 1× binding buffer (20% SeaBlock, 0.17×PBS, 0.05% Tween 20, 6 mM DTT). Test compounds were prepared as 100× stocks in DMSO and diluted into the aqueous environment. Kds were determined using an eleven point threefold serial dilutions. DMSO or control compounds were was added to control assays lacking a test compound. Primary screen assays were performed in polypropylene 384-well plates in a final volume of 20-40 μL, while Kd determinations were performed in polystyrene 96-well plates in a final volume of 135 μL. The assay plates were incubated at room temperature with shaking for 1 hour to allow the binding reactions to reach equilibrium, and the affinity beads were washed extensively with wash buffer (1×PBS, 0.05% Tween 20) to remove unbound protein. The beads were then resuspended in elution buffer (1×PBS, 0.05% Tween […] non-biotinylated affinity ligand) and incubated at room temperature with shaking for 30 min. The kinase concentration in the eluates was measured by quantitative PCR.
A selectivity score (S10) is a quantitative measure of selectivity of a compound against a panel of kinases. An S10 was calculated for a compound by dividing the number of kinases found to have a percent of control (DMSO) less than 10 by the total number of distinct kinases tested (excluding mutant variants). Percent of control (POC) is calculated by subtracting the signal of the control compound (POC=0) from the signal of the test compound and dividing the outcome by the signal of DMSO (POC=100) minus the signal of the control compound. For the compounds disclosed herein, S10 scores were obtained by testing the compounds at 10 μM concentration in a kinase panel containing either 386 or 392 distinct kinases.

[2] = 10 μM, panel of 386 or 392 distinct kinases
[3] = compounds at 10 μM, 386 or 392 distinct kinases

T1 sequence (P10721 26-976): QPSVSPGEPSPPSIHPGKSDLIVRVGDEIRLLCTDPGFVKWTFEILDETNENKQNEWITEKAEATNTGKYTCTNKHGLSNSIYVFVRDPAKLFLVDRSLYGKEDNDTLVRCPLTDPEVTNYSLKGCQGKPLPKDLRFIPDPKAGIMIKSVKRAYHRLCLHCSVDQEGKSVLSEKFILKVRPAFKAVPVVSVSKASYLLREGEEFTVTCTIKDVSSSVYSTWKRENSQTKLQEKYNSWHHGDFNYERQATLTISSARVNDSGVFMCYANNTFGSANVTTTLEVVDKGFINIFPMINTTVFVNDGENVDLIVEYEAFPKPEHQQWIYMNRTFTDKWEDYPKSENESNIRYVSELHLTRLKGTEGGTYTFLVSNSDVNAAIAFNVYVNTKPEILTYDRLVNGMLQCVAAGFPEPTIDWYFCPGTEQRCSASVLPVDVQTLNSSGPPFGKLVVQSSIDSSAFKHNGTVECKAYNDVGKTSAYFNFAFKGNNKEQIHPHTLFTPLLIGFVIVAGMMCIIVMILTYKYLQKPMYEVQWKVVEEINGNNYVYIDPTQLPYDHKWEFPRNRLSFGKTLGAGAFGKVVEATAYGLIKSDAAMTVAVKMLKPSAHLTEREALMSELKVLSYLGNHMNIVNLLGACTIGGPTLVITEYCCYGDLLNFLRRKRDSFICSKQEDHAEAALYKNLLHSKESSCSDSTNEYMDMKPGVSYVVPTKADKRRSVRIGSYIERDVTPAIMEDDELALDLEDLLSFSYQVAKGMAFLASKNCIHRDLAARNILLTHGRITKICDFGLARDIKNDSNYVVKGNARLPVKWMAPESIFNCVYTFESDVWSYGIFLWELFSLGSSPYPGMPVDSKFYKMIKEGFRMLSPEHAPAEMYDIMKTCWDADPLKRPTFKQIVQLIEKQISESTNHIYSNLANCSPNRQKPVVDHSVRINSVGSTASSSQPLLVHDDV

Compound: Fc1cnc2c(c1)ncn2Cc1ccc2nc(N[C@@H]3CCCC[C@@H]3Cl)sc2c1 [Example 219, N-((1R,2S)-2-chlorocyclohexyl)-6-((6-fluoro-3H-imidazo[4,5-b]pyridin-3-yl)methyl)benzo[d]thiazol-2-amine]
- Kd (KIT; competition binding): 100 to 500 nM
- Kd (FLT3; competition binding): 1000 to 5000 nM
- Kd (CSF1R; competition binding): 5 to 20 nM
- Kinase specificity S(10) [1, 2]: B (0.01<B≤0.02)

Compound: CS(=O)(=O)c1cnc2c(c1)ncn2Cc1ccc2nc(N[C@@H]3CCCC[C@H]3O)sc2c1 [Example 74, (1R,2R)-2-((6-((6-(methylsulfonyl)-3H-imidazo[4,5-b]pyridin-3-yl)methyl)benzo[d]thiazol-2-yl)amino)cyclohexanol]
- Kd (KIT): 100 to 500 nM
- Kd (FLT3): ≤ 200 nM
- Kd (CSF1R): 5 to 20 nM
- Kinase specificity S(10) [1, 3]: B (0.01<B≤0.02)

Compound: C=Cc1ccn2c(Cc3ccc4nc(N[C@@H]5CCCC[C@H]5O)sc4c3)cnc2c1 [Example 216, (1R,2R)-2-((6-((7-vinylimidazo[1,2-a]pyridin-3-yl)methyl)benzo[d]thiazol-2-yl)amino)cyclohexanol]
- Kd (KIT; competition binding): 500 to 2000 nM
- Kd (FLT3; competition binding): 1000 to 5000 nM
- Kd (CSF1R; competition binding): 5 to 20 nM
- Kinase specificity S(10) [1, 2]: A (A≤0.01)

Compound: O[C@@H]1Cc2ccccc2[C@H]1Nc1nc2ccc(Cn3cnc4ccc(Br)nc43)cc2s1 [Example 80, (1R,2R)-1-((6-((5-bromo-3H-imidazo[4,5-b]pyridin-3-yl)methyl)benzo[d]thiazol-2-yl)amino)-2,3-dihydro-1H-inden-2-ol]
- Kd (KIT): ≤ 100 nM
- Kd (FLT3): 200 to 1000 nM
- Kd (CSF1R): 5 to 20 nM
- Kinase specificity S(10) [1, 3]: B (0.01<B≤0.02)

Compound: COc1cc2ncn(Cc3ccc4nc(N[C@@H]5CCCC[C@H]5O)oc4c3)c2cc1OC [Example 34, (1R,2R)-2-((6-((5,6-dimethoxy-1H-benzo[d]imidazol-1-yl)methyl)benzo[d]oxazol-2-yl)amino)cyclohexanol]
- Kd (KIT): 100 to 500 nM
- Kd (FLT3): ≤ 200 nM
- Kd (CSF1R): 5 to 20 nM
- Kinase specificity S(10) [1, 3]: C (C>0.02)

Compound: OC1CCN(c2ccn3c(Cc4ccc5nc(N[C@@H]6CCCC[C@H]6O)sc5c4)cnc3c2)CC1 [Example 199, 1-(3-((2-(((1R,2R)-2-hydroxycyclohexyl)amino)benzo[d]thiazol-6-yl)methyl)imidazo[1,2-a]pyridin-7-yl)piperidin-4-ol]
- Kd (KIT; competition binding): > 2000 nM
- Kd (FLT3; competition binding): > 5000 nM
- Kd (CSF1R; competition binding): 5 to 20 nM
- Kinase specificity S(10) [1, 2]: A (A≤0.01)

Compound: O[C@@H]1CCCC[C@H]1Nc1nc2ccc(Cn3cnc4ccc(Br)cc43)cc2s1 [Example 107, (1R,2R)-2-((6-((6-bromo-1H-benzo[d]imidazol-1-yl)methyl)benzo[d]thiazol-2-yl)amino)cyclohexanol]
- Kd (KIT; competition binding): 100 to 500 nM
- Kd (FLT3; competition binding): 1000 to 5000 nM
- Kd (CSF1R; competition binding): 5 to 20 nM
- Kinase specificity S(10) [1, 2]: B (0.01<B≤0.02)

Compound: O[C@@H]1CCCC[C@H]1Nc1nc2ccc(Cn3cnc4cc(Br)cnc43)cc2o1 [Example 61, (1R,2R)-2-((6-((6-bromo-3H-imidazo[4,5-b]pyridin-3-yl)methyl)benzo[d]oxazol-2-yl)amino)cyclohexanol]
- Kd (KIT): ≤ 100 nM
- Kd (FLT3): ≤ 200 nM
- Kd (CSF1R): 5 to 20 nM
- Kinase specificity S(10) [1, 3]: C (C>0.02)

Compound: CS(=O)(=O)O.O[C@@H]1CCCC[C@H]1Nc1nc2ccc(Cn3cnc4cccnc43)cc2s1 [Example 3, (1R,2R)-2-((6-((3H-imidazo[4,5-b]pyridin-3-yl)methyl)benzo[d]thiazol-2-yl)amino)cyclohexanol methanesulfonic acid]
- Kd (KIT): 100 to 500 nM
- Kd (FLT3): 1000 to 5000 nM
- Kd (CSF1R): ≤ 5 nM
- Kinase specificity S(10) [1, 3]: B (0.01<B≤0.02)

Compound: Cn1cc(-c2cn(Cc3ccc4nc(N[C@@H]5CCCC[C@H]5O)oc4c3)cn2)cn1 [Example 77, (1R,2R)-2-((6-((4-(1-methyl-1H-pyrazol-4-yl)-1H-imidazol-1-yl)methyl)benzo[d]oxazol-2-yl)amino)cyclohexanol]
- Kd (KIT): 500 to 2000 nM
- Kd (FLT3): 1000 to 5000 nM
- Kd (CSF1R): 5 to 20 nM
- Kinase specificity S(10) [1, 3]: A (A≤0.01)

Compound: C=Cc1cc(F)c2c(c1)ncn2Cc1ccc2nc(N[C@@H]3CCCC[C@H]3O)sc2c1 [Example 207, (1R,2R)-2-((6-((7-fluoro-5-vinyl-1H-benzo[d]imidazol-1-yl)methyl)benzo[d]thiazol-2-yl)amino)cyclohexanol]
- Kd (KIT; competition binding): ≤ 100 nM
- Kd (FLT3; competition binding): ≤ 200 nM
- Kd (CSF1R; competition binding): 5 to 20 nM
- Kinase specificity S(10) [1, 2]: B (0.01<B≤0.02)

Compound: O[C@@H]1CCCC[C@H]1Nc1nc2ccc(Cn3cnc4cc(C5=CCOCC5)cc(F)c43)cc2s1 [Example 208, (1R,2R)-2-((6-((5-(3,6-dihydro-2H-pyran-4-yl)-7-fluoro-1H-benzo[d]imidazol-1-yl)methyl)benzo[d]thiazol-2-yl)amino)cyclohexanol]
- Kd (KIT; competition binding): ≤ 100 nM
- Kd (FLT3; competition binding): ≤ 200 nM
- Kd (CSF1R; competition binding): ≤ 5 nM
- Kinase specificity S(10) [1, 2]: B (0.01<B≤0.02)

Compound: O[C@@H]1CCCC[C@H]1Nc1nc2ccc(Cn3cnc4cc(Br)ccc43)cc2s1 [Example 100, (1R,2R)-2-((6-((5-bromo-1H-benzo[d]imidazol-1-yl)methyl)benzo[d]thiazol-2-yl)amino)cyclohexanol]
- Kd (KIT): 100 to 500 nM
- Kd (FLT3): 1000 to 5000 nM
- Kd (CSF1R): 5 to 20 nM
- Kinase specificity S(10) [1, 3]: A (A≤0.01)

Compound: COc1cc2c(cc1Br)ncn2Cc1ccc2nc(N[C@@H]3c4ccccc4C[C@H]3O)sc2c1 [Example 49, (1R,2R)-1-((6-((5-bromo-6-methoxy-1H-benzo[d]imidazol-1-yl)methyl)benzo[d]thiazol-2-yl)amino)-2,3-dihydro-1H-inden-2-ol]
- Kd (KIT): 500 to 2000 nM
- Kd (FLT3): 1000 to 5000 nM
- Kd (CSF1R): 5 to 20 nM
- Kinase specificity S(10) [1, 3]: A (A≤0.01)

Compound: Nc1nccn(Cc2ccc3nc(N[C@@H]4CCCC[C@H]4O)sc3c2)c1=O [Example 220, 3-amino-1-((2-(((1R,2R)-2-hydroxycyclohexyl)amino)benzo[d]thiazol-6-yl)methyl)pyrazin-2(1H)-one acetate salt]
- Kd (KIT; competition binding): > 2000 nM
- Kd (FLT3; competition binding): > 5000 nM
- Kd (CSF1R; competition binding): 20 to 50 nM
- Kinase specificity S(10) [1, 2]: A (A≤0.01)

Compound: either (1R,2R)-1-((6-((4-(1-methyl-1H-pyrazol-4-yl)-1H-imidazol-1-yl)methyl)benzo[d]thiazol-2-yl)amino)-2,3-dihydro-1H-inden-2-ol or (1R,2R)-1-((6-((5-(1-methyl-1H-pyrazol-4-yl)-1H-imidazol-1-yl)methyl)benzo[d]thiazol-2-yl)amino)-2,3-dihydro-1H-inden-2-ol [Example 83]
- Kd (KIT): 500 to 2000 nM
- Kd (FLT3): ≤ 200 nM
- Kd (CSF1R): ≤ 5 nM
- Kinase specificity S(10) [1, 3]: A (A≤0.01)

Compound: O[C@@H]1CCCC[C@H]1Nc1nc2ccc(Cc3cnc4ccccn34)cc2s1 [Example 38, (1R,2R)-2-((6-(imidazo[1,2-a]pyridin-3-ylmethyl)benzo[d]thiazol-2-yl)amino)cyclohexanol]
- Kd (KIT): 500 to 2000 nM
- Kd (FLT3): > 5000 nM
- Kd (CSF1R): 20 to 50 nM
- Kinase specificity S(10) [1, 3]: A (A≤0.01)
